Activity calls are given as the source filed them. The calls are words filed in the database; no cut-off is given here.

The values below come from ChEMBL document CHEMBL3414456, “Pentacyclic triterpene derivatives possessing polyhydroxyl ring A inhibit gram-positive bacteria growth by regulating metabolism and virulence genes expression” (2015).

Assay [1] relates to Streptomyces scabiei. Briefly: Antibacterial activity against Streptomyces scabiei CGMCC4.7610246 assessed as growth inhibition at 100 uM after 36 hrs by turbidimetric analysis. It is filed as functional, organism-based.
The test system of assay [2] is Staphylococcus aureus. The assay can be described thus: Antibacterial activity against Staphylococcus aureus ATCC 25923 assessed as growth inhibition at 100 uM after 24 hrs by turbidimetric analysis. It is filed as functional.
The subject of assay [3] is Bacillus spizizenii. The assay can be described thus: Antibacterial activity against Bacillus subtilis ATCC 6633 assessed as growth inhibition at 100 uM after 24 hrs by turbidimetric analysis. The class given is functional.

For `CC1(C)CC[C@]2(C(=O)OCc3ccc([N+](=O)[O-])cc3)CC[C@]3(C)C(=CC[C@@H]4[C@@]5(C)[C@@H](O)[C@H](O)[C@H](O)C(C)(C)[C@@H]5CC[C@]43C)[C@@H]2C1`, in assay [1], the “growth inhibition (GI)” value was “inactive”. Besides, the “growth inhibition (GI)” value in assay [2] and in assay [3] was “Active” in each case.
Take `CC1(C)CC[C@]2(C(=O)O)CC[C@]3(C)C(=CC[C@@H]4[C@@]5(C)[C@H]6O[C@H]6C(=O)C(C)(C)[C@@H]5CC[C@]43C)[C@@H]2C1`: the “growth inhibition (GI)” value in assay [1] and in assay [3] was “Active” each time.
With `CC1(C)CC[C@]2(C(=O)OCc3ccccc3Cl)CC[C@]3(C)C(=CC[C@@H]4[C@@]5(C)[C@@H](O)[C@H](O)[C@H](O)C(C)(C)[C@@H]5CC[C@]43C)[C@@H]2C1`, in assay [1], the “growth inhibition (GI)” value was “inactive”. The “growth inhibition (GI)” value in assay [2] and in assay [3] was “Active” in each case.
Turning to `C[C@H]1[C@H](C)CC[C@]2(C(=O)OCc3ccccc3Cl)CC[C@]3(C)C(=CC[C@@H]4[C@@]5(C)[C@@H](O)[C@H](O)[C@H](O)C(C)(C)[C@@H]5CC[C@]43C)[C@H]12`, in assay [1], the “growth inhibition (GI)” value is “inactive”. For the same compound, the “growth inhibition (GI)” value in assay [2] and in assay [3] was “Active” throughout.
As for `C[C@H]1[C@H](C)CC[C@]2(C(=O)OCc3ccccc3)CC[C@]3(C)C(=CC[C@@H]4[C@@]5(C)[C@@H](O)[C@H](O)[C@H](O)C(C)(C)[C@@H]5CC[C@]43C)[C@H]12`, the “growth inhibition (GI)” value in assay [2] is “Active”.
Regarding `C[C@H]1[C@H](C)CC[C@]2(C(=O)OCc3ccc(Cl)cc3)CC[C@]3(C)C(=CC[C@@H]4[C@@]5(C)[C@@H](O)[C@H](O)[C@H](O)C(C)(C)[C@@H]5CC[C@]43C)[C@H]12`, the “growth inhibition (GI)” value in assay [1] was “inactive”. Moreover, the “growth inhibition (GI)” value in assay [2] and in assay [3] was “Active” in each case.
Turning to `C[C@H]1[C@H](C)CC[C@]2(C(=O)O)CC[C@]3(C)C(=CC[C@@H]4[C@@]5(C)[C@@H](O)[C@H](O)[C@H](O)C(C)(C)[C@@H]5CC[C@]43C)[C@H]12`, the “growth inhibition (GI)” value in assay [1], in assay [2] and in assay [3] was “Active” throughout.
Consider `CCCCCOC(=O)[C@]12CCC(C)(C)C[C@H]1C1=CC[C@@H]3[C@@]4(C)[C@@H](O)[C@H](O)[C@H](O)C(C)(C)[C@@H]4CC[C@@]3(C)[C@]1(C)CC2`, for which the “growth inhibition (GI)” value in assay [2] and in assay [3] was “Active” in each case.
As for `CCCCCOC(=O)[C@]12CC[C@@H](C)[C@H](C)[C@H]1C1=CC[C@@H]3[C@@]4(C)[C@@H](O)[C@H](O)[C@H](O)C(C)(C)[C@@H]4CC[C@@]3(C)[C@]1(C)CC2`, the “growth inhibition (GI)” value in assay [2] and in assay [3] was “Active” each time.
Consider `CC1(C)CC[C@]2(C(=O)O)CC[C@]3(C)C(=CC[C@@H]4[C@@]5(C)[C@@H](O)[C@H](O)[C@H](O)C(C)(C)[C@@H]5CC[C@]43C)[C@@H]2C1`, for which the “growth inhibition (GI)” value in assay [2] was “Active”.
For the compound `C[C@H]1[C@H](C)CC[C@]2(C(=O)OCc3ccccc3)CC[C@]3(C)C(=CC[C@@H]4[C@@]5(C)[C@H]6O[C@H]6C(=O)C(C)(C)[C@@H]5CC[C@]43C)[C@H]12`, the “growth inhibition (GI)” value in assay [1] and in assay [3] was “Active” in each case.
For the compound `CCCCCCCCCCCCCCCOC(=O)[C@]12CC[C@@H](C)[C@H](C)[C@H]1C1=CC[C@@H]3[C@@]4(C)[C@@H](O)[C@H](O)[C@H](O)C(C)(C)[C@@H]4CC[C@@]3(C)[C@]1(C)CC2`, the “growth inhibition (GI)” value in assay [2] and in assay [3] was “Active” in each case.
On to `CCCCCCCCCCCCCCCOC(=O)[C@]12CCC(C)(C)C[C@H]1C1=CC[C@@H]3[C@@]4(C)[C@@H](O)[C@H](O)[C@H](O)C(C)(C)[C@@H]4CC[C@@]3(C)[C@]1(C)CC2`, for which the “growth inhibition (GI)” value in assay [2] and in assay [3] was “Active” in each case.
